From ChEMBL document CHEMBL4014279, “Synthesis of novel pyrazolo[3,4-b]quinolinyl acetamide analogs, their evaluation for antimicrobial and anticancer activities, validation by molecular modeling and CoMFA analysis” (Eur J Med Chem, 2017)
≈ marks a conversion by molar mass, not a printed value.

Legend:
Staphylococcus aureus [1] = experiment: Antibacterial activity against Staphylococcus aureus MTCC 96 after 24 hrs by well diffusion method; type: functional; details: MTCC 96, 24 h
Raoultella planticola = experiment: Antibacterial activity against Klebsiella planticola MTCC 530 after 24 hrs by well diffusion method; type: functional; details: MTCC 530, 24 h
Escherichia coli = experiment: Antibacterial activity against Escherichia coli MTCC 739 after 24 hrs by well diffusion method; type: functional; details: MTCC 739, 24 h
HeLa = experiment: Cytotoxicity against human HeLa cells after 24 hrs by MTT assay; type: functional, cell-based
Pseudomonas aeruginosa = experiment: Antibacterial activity against Pseudomonas aeruginosa MTCC 2453 after 24 hrs by well diffusion method; type: functional; details: MTCC 2453, 24 h
HepG2 = experiment: Cytotoxicity against human HepG2 cells after 24 hrs by MTT assay; type: functional, cell-based; details: HepG2, 24 h
Micrococcus luteus = experiment: Antibacterial activity against Micrococcus luteus MTCC 2470 after 24 hrs by well diffusion method; type: functional; details: MTCC 2470, 24 h
A549 = experiment: Cytotoxicity against human A549 cells after 24 hrs by MTT assay; type: functional, cell-based; details: A549, 24 h
Staphylococcus aureus [2] = experiment: Antibacterial activity against Staphylococcus aureus MLS16 MTCC 2940 after 24 hrs by well diffusion method; type: functional; details: MLS16 MTCC 2940, 24 h
COLO 205 = experiment: Cytotoxicity against human COLO205 cells after 24 hrs by MTT assay; type: functional, cell-based; details: COLO 205, 24 h
Bacillus subtilis = experiment: Antibacterial activity against Bacillus subtilis MTCC 121 after 24 hrs by well diffusion method; type: functional; details: MTCC 121, 24 h

Row | SMILES | MIC (Staphylococcus aureus [1]) [µg/mL] | MIC (Raoultella planticola) [µg/mL] | MIC (Escherichia coli) [µg/mL] | IC50 (HeLa) [µM] | MIC (Pseudomonas aeruginosa) [µg/mL] | IC50 (HepG2) [µM] | MIC (Micrococcus luteus) [µg/mL] | IC50 (A549) [µM] | MIC (Staphylococcus aureus [2]) [µg/mL] | IC50 (COLO 205) [µM] | MIC (Bacillus subtilis) [µg/mL]
1 | CCCNC(=O)Cn1nc(C(F)(F)F)c2c(-c3ccccc3)c3ccccc3nc21 | 7.8 to 125 (≈ 18.9 to 303 µM) | 7.8 to 125 (≈ 18.9 to 303 µM) | 7.8 to 125 (≈ 18.9 to 303 µM) | 23.7 | 7.8 to 125 (≈ 18.9 to 303 µM) | 23.4 | 7.8 to 125 (≈ 18.9 to 303 µM) | 25.6 | 7.8 to 125 (≈ 18.9 to 303 µM) | 22.1 | 7.8 to 125 (≈ 18.9 to 303 µM)
2 | Cc1c2ccccc2nc2c1c(C(F)(F)F)nn2CC(=O)N1CCN(CCO)CC1 | 7.8 to 125 (≈ 18.5 to 297 µM) | 7.8 to 125 (≈ 18.5 to 297 µM) | 7.8 to 125 (≈ 18.5 to 297 µM) | 28.2 | 7.8 to 125 (≈ 18.5 to 297 µM) | 30.2 | 7.8 to 125 (≈ 18.5 to 297 µM) | 31.1 | 7.8 to 125 (≈ 18.5 to 297 µM) | 19.8 | 7.8 to 125 (≈ 18.5 to 297 µM)
3 | O=C(Cn1nc(C(F)(F)F)c2c(-c3ccccc3)c3ccccc3nc21)N1CCCCC1 | 7.8 to 125 (≈ 17.8 to 285 µM) | 7.8 to 125 (≈ 17.8 to 285 µM) | 7.8 to 125 (≈ 17.8 to 285 µM) | 29.2 | 7.8 to 125 (≈ 17.8 to 285 µM) | 30.2 | 7.8 to 125 (≈ 17.8 to 285 µM) | 25.6 | 7.8 to 125 (≈ 17.8 to 285 µM) | 19.3 | 7.8 to 125 (≈ 17.8 to 285 µM)
4 | CNC(=O)Cn1nc(C(F)(F)F)c2c(-c3ccccc3)c3ccccc3nc21 | 7.8 to 125 (≈ 20.3 to 325 µM) | 7.8 to 125 (≈ 20.3 to 325 µM) | 7.8 to 125 (≈ 20.3 to 325 µM) | 23.5 | 7.8 to 125 (≈ 20.3 to 325 µM) | 22.5 | 7.8 to 125 (≈ 20.3 to 325 µM) | 21.4 | 7.8 to 125 (≈ 20.3 to 325 µM) | 19.8 | 7.8 to 125 (≈ 20.3 to 325 µM)
5 | Cc1c2ccccc2nc2c1c(C(F)(F)F)nn2CC(=O)NC1CCCCC1 | 7.8 to 125 (≈ 20 to 320 µM) | 7.8 to 125 (≈ 20 to 320 µM) | 7.8 to 125 (≈ 20 to 320 µM) | 23.4 | 7.8 to 125 (≈ 20 to 320 µM) | 29.6 | 7.8 to 125 (≈ 20 to 320 µM) | 28.2 | 7.8 to 125 (≈ 20 to 320 µM) | 24.5 | 7.8 to 125 (≈ 20 to 320 µM)
6 | O=C(Cn1nc(C(F)(F)F)c2c(-c3ccccc3)c3ccccc3nc21)Nc1ccc([N+](=O)[O-])cc1 | 7.8 to 125 (≈ 15.9 to 254 µM) | 7.8 to 125 (≈ 15.9 to 254 µM) | 7.8 to 125 (≈ 15.9 to 254 µM) | 15.1 | 7.8 to 125 (≈ 15.9 to 254 µM) | 12.2 | 7.8 to 125 (≈ 15.9 to 254 µM) | 10.8 | 7.8 to 125 (≈ 15.9 to 254 µM) | 14.3 | 7.8 to 125 (≈ 15.9 to 254 µM)
7 | Cc1nn(CC(=O)Nc2ccc([N+](=O)[O-])cc2)c2nc3ccccc3c(C)c12 | 7.8 to 125 (≈ 20.8 to 333 µM) | 7.8 to 125 (≈ 20.8 to 333 µM) | 7.8 to 125 (≈ 20.8 to 333 µM) | 18.5 | 7.8 to 125 (≈ 20.8 to 333 µM) | 17.2 | 7.8 to 125 (≈ 20.8 to 333 µM) | 15.9 | 7.8 to 125 (≈ 20.8 to 333 µM) | 20.1 | 7.8 to 125 (≈ 20.8 to 333 µM)
8 | Cc1c2ccccc2nc2c1c(C(F)(F)F)nn2CC(=O)NCc1ccco1 | 7.8 to 125 (≈ 20.1 to 322 µM) | 7.8 to 125 (≈ 20.1 to 322 µM) | 7.8 to 125 (≈ 20.1 to 322 µM) | 32.8 | 7.8 to 125 (≈ 20.1 to 322 µM) | 48.2 | 7.8 to 125 (≈ 20.1 to 322 µM) | 33.9 | 7.8 to 125 (≈ 20.1 to 322 µM) | 29.8 | 7.8 to 125 (≈ 20.1 to 322 µM)
9 | O=c1[nH]cc(F)c(=O)[nH]1 [FLUOROURACIL] |  |  |  | 1.4 |  | 1.4 |  | 1.2 |  | 1.9 | 
10 | O=C(Cn1nc(C(F)(F)F)c2c(-c3ccccc3)c3ccccc3nc21)NCc1ccco1 | 7.8 to 125 (≈ 17.3 to 278 µM) | 7.8 to 125 (≈ 17.3 to 278 µM) | 7.8 to 125 (≈ 17.3 to 278 µM) | 27.2 | 7.8 to 125 (≈ 17.3 to 278 µM) | 26.8 | 7.8 to 125 (≈ 17.3 to 278 µM) | 22.4 | 7.8 to 125 (≈ 17.3 to 278 µM) | 28.1 | 7.8 to 125 (≈ 17.3 to 278 µM)
11 | CCCCCCNC(=O)Cn1nc(C(F)(F)F)c2c(C)c3ccccc3nc21 | 7.8 to 125 (≈ 19.9 to 319 µM) | 7.8 to 125 (≈ 19.9 to 319 µM) | 7.8 to 125 (≈ 19.9 to 319 µM) | 21.7 | 7.8 to 125 (≈ 19.9 to 319 µM) | 19.6 | 7.8 to 125 (≈ 19.9 to 319 µM) | 20.5 | 7.8 to 125 (≈ 19.9 to 319 µM) | 22.2 | 7.8 to 125 (≈ 19.9 to 319 µM)
